Assays:
[1] = n-Octanol-phosphate buffer partition coefficient, log P of the compound at pH 7.4 by shake flask method; type: physicochemical
Hs-578T = assay: Cytotoxicity against human Hs578T cells at 10 uM after 48 hrs by SRB assay; type: functional; conditions: read-out: GI
MDA-MB-231 = assay: Cytotoxicity against human MDA-MB-231 cells at 10 uM after 48 hrs by SRB assay; type: functional; conditions: MDA-MB-231, 48 h, read-out: GI
SN12C = assay: Cytotoxicity against human SN12C cells at 10 uM after 48 hrs by SRB assay; type: functional; conditions: read-out: GI
SK-OV-3 = assay: Cytotoxicity against human SKOV3 cells at 10 uM after 48 hrs by SRB assay; type: functional; conditions: SK-OV-3, 48 h, read-out: GI
OVCAR-8 = assay: Cytotoxicity against human OVCAR8 cells at 10 uM after 48 hrs by SRB assay; type: functional; conditions: OVCAR-8, 48 h, read-out: GI
OVCAR-5 = assay: Cytotoxicity against human OVCAR5 cells at 10 uM after 48 hrs by SRB assay; type: functional; conditions: OVCAR-5, 48 h, read-out: GI
IGROV-1 = assay: Cytotoxicity against human IGROV1 cells at 10 uM after 48 hrs by SRB assay; type: functional; conditions: IGROV-1, 48 h, read-out: GI
MDA-MB-435 = assay: Cytotoxicity against human MDA-MB-435 cells at 10 uM after 48 hrs by SRB assay; type: functional; conditions: MDA-MB-435, 48 h, read-out: GI
Malme-3M = assay: Cytotoxicity against human MALME-3M cells at 10 uM after 48 hrs by SRB assay; type: functional; conditions: read-out: GI
U-251 = assay: Cytotoxicity against human U251 cells at 10 uM after 48 hrs by SRB assay; type: functional; conditions: U-251, 48 h, read-out: GI
SNB-75 = assay: Cytotoxicity against human SNB75 cells at 10 uM after 48 hrs by SRB assay; type: functional; conditions: SNB-75, 48 h, read-out: GI
KM12 = assay: Cytotoxicity against human KM12 cells at 10 uM after 48 hrs by SRB assay; type: functional; conditions: KM12, 48 h, read-out: GI
COLO 205 = assay: Cytotoxicity against human COLO205 cells at 10 uM after 48 hrs by SRB assay; type: functional; conditions: COLO 205, 48 h, read-out: GI
NCI-H460 = assay: Cytotoxicity against human NCI-H460 cells at 10 uM after 48 hrs by SRB assay; type: functional; conditions: NCI-H460, 48 h, read-out: GI
NCI-H23 = assay: Cytotoxicity against human NCI-H23 cells at 10 uM after 48 hrs by SRB assay; type: functional; conditions: NCI-H23, 48 h, read-out: GI
HOP-92 = assay: Cytotoxicity against human HOP92 cells at 10 uM after 48 hrs by SRB assay; type: functional; conditions: HOP-92, 48 h, read-out: GI
K562 = assay: Cytotoxicity against human K562 cells at 10 uM after 48 hrs by SRB assay; type: functional; conditions: K562, 48 h, read-out: GI
CCRF-CEM = assay: Cytotoxicity against human CCRF-CEM cells at 10 uM after 48 hrs by SRB assay; type: functional; conditions: read-out: GI

SMILES | logD [1] | inhibition of growth at 10 µM (Hs-578T) [%] | inhibition of growth at 10 µM (MDA-MB-231) [%] | inhibition of growth at 10 µM (SN12C) [%] | inhibition of growth at 10 µM (SK-OV-3) [%] | inhibition of growth at 10 µM (OVCAR-8) [%] | inhibition of growth at 10 µM (OVCAR-5) [%] | inhibition of growth at 10 µM (IGROV-1) [%] | inhibition of growth at 10 µM (MDA-MB-435) [%] | inhibition of growth at 10 µM (Malme-3M) [%] | inhibition of growth at 10 µM (U-251) [%] | inhibition of growth at 10 µM (SNB-75) [%] | inhibition of growth at 10 µM (KM12) [%] | inhibition of growth at 10 µM (COLO 205) [%] | inhibition of growth at 10 µM (NCI-H460) [%] | inhibition of growth at 10 µM (NCI-H23) [%] | inhibition of growth at 10 µM (HOP-92) [%] | inhibition of growth at 10 µM (K562) [%] | inhibition of growth at 10 µM (CCRF-CEM) [%]
C=CCn1c(C)nc2ccc(Nc3nc(Cl)nc4ccccc34)cc21 | 2.1 | < 10 | 10.1 | < 10 | < 10 | < 10 | < 10 | < 10 | < 10 | < 10 | < 10 | < 10 | < 10 | < 10 | < 10 | < 10 | < 10 | 25.2 | 
C=CCn1c(C)nc2cc(Nc3nc(Cl)nc4ccccc34)ccc21 | 1.17 | < 10 | 14.5 | < 10 | < 10 | < 10 | < 10 | < 10 | < 10 |  | < 10 | < 10 | < 10 | < 10 | < 10 | < 10 | < 10 | 21.3 | 
C=CCn1c(C)nc2ccc(Nc3nc(N4CCOCC4)nc4ccccc34)cc21 | 2.81 | < 10 | < 10 | < 10 | < 10 | 20.1 | < 10 | < 10 | < 10 | < 10 | < 10 | 12.6 | 11.9 | < 10 | < 10 | < 10 | < 10 | 35.6 | 
C=CCn1c(C)nc2ccc(Nc3nc(N4CCCC4)nc4ccccc34)cc21 | 2.9 | 13.1 | 58 | < 10 | < 10 | 15.9 | < 10 | < 10 | < 10 | < 10 | < 10 | 16.3 | 29.9 | < 10 | 18.7 | 11.3 | 18.6 | 98 | 
C=CCn1c(C)nc2ccc(Nc3nc(N4CCN(C)CC4)nc4ccccc34)cc21 | 1.03 | 23.3 | 22.8 | < 10 | < 10 | 23.4 | 16.5 | < 10 | < 10 | < 10 | 10.2 | 17.6 | 20.5 | 23.6 | < 10 | 19.2 | 42.4 | 37.8 | 31.5
C=CCn1c(C)nc2cc(Nc3nc(N4CCOCC4)nc4ccccc34)ccc21 | 2.49 | < 10 | < 10 | < 10 | < 10 | < 10 | < 10 | < 10 | < 10 |  | < 10 | < 10 | < 10 | < 10 | < 10 | < 10 | < 10 | < 10 | 
C=CCn1c(C)nc2cc(Nc3nc(N4CCCC4)nc4ccccc34)ccc21 | 2.51 | < 10 | < 10 | < 10 | < 10 | < 10 | < 10 | < 10 | < 10 | < 10 | < 10 | < 10 | < 10 |  | < 10 | < 10 | 15.5 | 14.9 | 
